Test results reported in patent publication US20110136666A1, “CHEMICAL COMPOUNDS” (SYNGENTA CROP PROTECTION, INC., priority 2008, published 2011).

test system: Solanum nigrum (SOLNI); assay: Post-emergence biological efficacy, glasshouse pot test; format: in vivo; conditions: 312 h, 1000 g/ha, after 13 days, 100=total damage, 0=no damage, read-out: Percentage damage caused to weed species SOLNI
Procedure: (§1) Seeds of Alopecurus myosuroides (ALOMY), Setaria faberi (SETFA), Echinochloa crus-galli (ECHCG), Solanum nigrum (SOLNI), Amaranthus retroflexus (AMARE) and Ipomea hederaceae (IPOHE) were sown in standard soil in pots. After cultivation for 8 days under controlled conditions in a glasshouse (at 24/16° C., day/night; 14 hours light; 65% humidity), the plants were sprayed with an aqueous spray solution derived from the formulation of the technical active ingredient in acetone/water (50:50) solution containing 0.5% Tween 20 (polyoxyethylene sorbitan monolaurate, CAS RN 9005-64-5) to give a final dose of 250 or 1000 g/ha of test compound.
(§2) The test plants were then grown on under controlled conditions in a glasshouse (at 24/16° C., day/night; 14 hours light; 65% humidity) and watered twice daily. After 13 days the test was evaluated (100=total damage to plant; 0=no damage to plant).

| SMILES | pest or weed control at 1000 g/ha |
| --- | --- |
| COC(=O)c1nc(-c2cccs2)nc(N)c1Cl [Compound 2-1, 4-Amino-5-chloro-6-methoxycarbonyl-2-thiophen-2-ylpyrimidine] | 0% |
| COC(=O)c1nc(-c2ccc(Cl)s2)nc(N)c1Cl [Compound 2-2, 4-Amino-5-chloro-2-(5-chlorothiophen-2-yl)-6-methoxycarbonyl pyrimidine] | 90% |
| COC(=O)c1nc(-c2ccc(C#N)s2)nc(N)c1Cl [Compound 2-3, 4-Amino-5-chloro-2-(5-cyanothiophen-2-yl)-6-methoxycarbonyl pyrimidine] | 0% |
| COC(=O)c1nc(-c2ccc(OC)s2)nc(N)c1Cl [Compound 2-7, 4-Amino-5-chloro-6-methoxycarbonyl-2-(5-methoxythiophen-2-yl)-pyrimidine] | 80% |

test system: Ipomea hederaceae (IPOHE); assay: as above; format: in vivo; conditions: Ipomoea hederacea, 312 h, 1000 g/ha, after 13 days, 100=total damage, 0=no damage, read-out: Percentage damage caused to weed species IPONE
Procedure: as §1, §2

| SMILES | pest or weed control at 1000 g/ha |
| --- | --- |
| COC(=O)c1nc(-c2cccs2)nc(N)c1Cl [Compound 2-1, 4-Amino-5-chloro-6-methoxycarbonyl-2-thiophen-2-ylpyrimidine] | 50% |
| COC(=O)c1nc(-c2ccc(Cl)s2)nc(N)c1Cl [Compound 2-2, 4-Amino-5-chloro-2-(5-chlorothiophen-2-yl)-6-methoxycarbonyl pyrimidine] | 70% |
| COC(=O)c1nc(-c2ccc(C#N)s2)nc(N)c1Cl [Compound 2-3, 4-Amino-5-chloro-2-(5-cyanothiophen-2-yl)-6-methoxycarbonyl pyrimidine] | 0% |
| COC(=O)c1nc(-c2ccc(OC)s2)nc(N)c1Cl [Compound 2-7, 4-Amino-5-chloro-6-methoxycarbonyl-2-(5-methoxythiophen-2-yl)-pyrimidine] | 80% |

test system: Amaranthus retroflexus (AMARE); assay: as above; format: in vivo; conditions: 312 h, 1000 g/ha, after 13 days, 100=total damage, 0=no damage, read-out: Percentage damage caused to weed species AMARE
Procedure: as §1, §2

| SMILES | pest or weed control at 1000 g/ha |
| --- | --- |
| COC(=O)c1nc(-c2cccs2)nc(N)c1Cl [Compound 2-1, 4-Amino-5-chloro-6-methoxycarbonyl-2-thiophen-2-ylpyrimidine] | 0% |
| COC(=O)c1nc(-c2ccc(Cl)s2)nc(N)c1Cl [Compound 2-2, 4-Amino-5-chloro-2-(5-chlorothiophen-2-yl)-6-methoxycarbonyl pyrimidine] | 100% |
| COC(=O)c1nc(-c2ccc(C#N)s2)nc(N)c1Cl [Compound 2-3, 4-Amino-5-chloro-2-(5-cyanothiophen-2-yl)-6-methoxycarbonyl pyrimidine] | 0% |
| COC(=O)c1nc(-c2ccc(OC)s2)nc(N)c1Cl [Compound 2-7, 4-Amino-5-chloro-6-methoxycarbonyl-2-(5-methoxythiophen-2-yl)-pyrimidine] | 100% |

test system: Echinochloa crus-galli (ECHCG); assay: as above; format: in vivo; conditions: 312 h, 1000 g/ha, after 13 days, 100=total damage, 0=no damage, read-out: Percentage damage caused to weed species ECHCG
Procedure: as §1, §2

| SMILES | pest or weed control at 1000 g/ha |
| --- | --- |
| COC(=O)c1nc(-c2cccs2)nc(N)c1Cl [Compound 2-1, 4-Amino-5-chloro-6-methoxycarbonyl-2-thiophen-2-ylpyrimidine] | 0% |
| COC(=O)c1nc(-c2ccc(Cl)s2)nc(N)c1Cl [Compound 2-2, 4-Amino-5-chloro-2-(5-chlorothiophen-2-yl)-6-methoxycarbonyl pyrimidine] | 0% |
| COC(=O)c1nc(-c2ccc(C#N)s2)nc(N)c1Cl [Compound 2-3, 4-Amino-5-chloro-2-(5-cyanothiophen-2-yl)-6-methoxycarbonyl pyrimidine] | 0% |
| COC(=O)c1nc(-c2ccc(OC)s2)nc(N)c1Cl [Compound 2-7, 4-Amino-5-chloro-6-methoxycarbonyl-2-(5-methoxythiophen-2-yl)-pyrimidine] | 80% |

test system: Setaria faberi (SETFA); assay: as above; format: in vivo; conditions: 312 h, 1000 g/ha, after 13 days, 100=total damage, 0=no damage, read-out: Percentage damage caused to weed species SETFA
Procedure: as §1, §2

| SMILES | pest or weed control at 1000 g/ha |
| --- | --- |
| COC(=O)c1nc(-c2cccs2)nc(N)c1Cl [Compound 2-1, 4-Amino-5-chloro-6-methoxycarbonyl-2-thiophen-2-ylpyrimidine] | 0% |
| COC(=O)c1nc(-c2ccc(Cl)s2)nc(N)c1Cl [Compound 2-2, 4-Amino-5-chloro-2-(5-chlorothiophen-2-yl)-6-methoxycarbonyl pyrimidine] | 0% |
| COC(=O)c1nc(-c2ccc(C#N)s2)nc(N)c1Cl [Compound 2-3, 4-Amino-5-chloro-2-(5-cyanothiophen-2-yl)-6-methoxycarbonyl pyrimidine] | 0% |
| COC(=O)c1nc(-c2ccc(OC)s2)nc(N)c1Cl [Compound 2-7, 4-Amino-5-chloro-6-methoxycarbonyl-2-(5-methoxythiophen-2-yl)-pyrimidine] | 70% |

test system: Alopecurus myosuroides (ALOMY); assay: as above; format: in vivo; conditions: 312 h, 1000 g/ha, after 13 days, 100=total damage, 0=no damage, read-out: Percentage damage caused to weed species ALOMY
Procedure: as §1, §2

| SMILES | pest or weed control at 1000 g/ha |
| --- | --- |
| COC(=O)c1nc(-c2cccs2)nc(N)c1Cl [Compound 2-1, 4-Amino-5-chloro-6-methoxycarbonyl-2-thiophen-2-ylpyrimidine] | 0% |
| COC(=O)c1nc(-c2ccc(Cl)s2)nc(N)c1Cl [Compound 2-2, 4-Amino-5-chloro-2-(5-chlorothiophen-2-yl)-6-methoxycarbonyl pyrimidine] | 0% |
| COC(=O)c1nc(-c2ccc(C#N)s2)nc(N)c1Cl [Compound 2-3, 4-Amino-5-chloro-2-(5-cyanothiophen-2-yl)-6-methoxycarbonyl pyrimidine] | 0% |
| COC(=O)c1nc(-c2ccc(OC)s2)nc(N)c1Cl [Compound 2-7, 4-Amino-5-chloro-6-methoxycarbonyl-2-(5-methoxythiophen-2-yl)-pyrimidine] | 0% |

test system: Solanum nigrum (SOLNI); assay: Pre-emergence biological efficacy, glasshouse pot test; format: in vivo; conditions: 312 h, 1000 g/ha, after 13 days, 100=total damage, 0=no damage, read-out: Percentage damage caused to weed species SOLNI
Procedure: as §1, with “one day” for “8 days”
(§3) The test plants were then grown under controlled conditions in the glasshouse (at 24/16° C., day/night; 14 hours light; 65% humidity) and watered twice daily. After 13 days the test was evaluated (100=total damage to plant; 0=no damage to plant).

| SMILES | pest or weed control at 1000 g/ha |
| --- | --- |
| COC(=O)c1nc(-c2cccs2)nc(N)c1Cl [Compound 2-1, 4-Amino-5-chloro-6-methoxycarbonyl-2-thiophen-2-ylpyrimidine] | 0% |
| COC(=O)c1nc(-c2ccc(Cl)s2)nc(N)c1Cl [Compound 2-2, 4-Amino-5-chloro-2-(5-chlorothiophen-2-yl)-6-methoxycarbonyl pyrimidine] | 0% |
| COC(=O)c1nc(-c2ccc(C#N)s2)nc(N)c1Cl [Compound 2-3, 4-Amino-5-chloro-2-(5-cyanothiophen-2-yl)-6-methoxycarbonyl pyrimidine] | 0% |
| COC(=O)c1nc(-c2ccc(OC)s2)nc(N)c1Cl [Compound 2-7, 4-Amino-5-chloro-6-methoxycarbonyl-2-(5-methoxythiophen-2-yl)-pyrimidine] | 0% |

test system: Ipomea hederaceae (IPOHE); assay: as above; format: in vivo; conditions: Ipomoea hederacea, 312 h, 1000 g/ha, after 13 days, 100=total damage, 0=no damage, read-out: Percentage damage caused to weed species IPOHE
Procedure: as §1, with “one day” for “8 days”
as §3

| SMILES | pest or weed control at 1000 g/ha |
| --- | --- |
| COC(=O)c1nc(-c2cccs2)nc(N)c1Cl [Compound 2-1, 4-Amino-5-chloro-6-methoxycarbonyl-2-thiophen-2-ylpyrimidine] | 0% |
| COC(=O)c1nc(-c2ccc(Cl)s2)nc(N)c1Cl [Compound 2-2, 4-Amino-5-chloro-2-(5-chlorothiophen-2-yl)-6-methoxycarbonyl pyrimidine] | 20% |
| COC(=O)c1nc(-c2ccc(C#N)s2)nc(N)c1Cl [Compound 2-3, 4-Amino-5-chloro-2-(5-cyanothiophen-2-yl)-6-methoxycarbonyl pyrimidine] | 0% |
| COC(=O)c1nc(-c2ccc(OC)s2)nc(N)c1Cl [Compound 2-7, 4-Amino-5-chloro-6-methoxycarbonyl-2-(5-methoxythiophen-2-yl)-pyrimidine] | 20% |

test system: Amaranthus retroflexus (AMARE); assay: as above; format: in vivo; conditions: 312 h, 1000 g/ha, after 13 days, 100=total damage, 0=no damage, read-out: Percentage damage caused to weed species AMARE
Procedure: as §1, with “one day” for “8 days”
as §3

| SMILES | pest or weed control at 1000 g/ha |
| --- | --- |
| COC(=O)c1nc(-c2cccs2)nc(N)c1Cl [Compound 2-1, 4-Amino-5-chloro-6-methoxycarbonyl-2-thiophen-2-ylpyrimidine] | 0% |
| COC(=O)c1nc(-c2ccc(Cl)s2)nc(N)c1Cl [Compound 2-2, 4-Amino-5-chloro-2-(5-chlorothiophen-2-yl)-6-methoxycarbonyl pyrimidine] | 80% |
| COC(=O)c1nc(-c2ccc(C#N)s2)nc(N)c1Cl [Compound 2-3, 4-Amino-5-chloro-2-(5-cyanothiophen-2-yl)-6-methoxycarbonyl pyrimidine] | 0% |
| COC(=O)c1nc(-c2ccc(OC)s2)nc(N)c1Cl [Compound 2-7, 4-Amino-5-chloro-6-methoxycarbonyl-2-(5-methoxythiophen-2-yl)-pyrimidine] | 90% |

test system: Echinochloa crus-galli (ECHCG); assay: as above; format: in vivo; conditions: 312 h, 1000 g/ha, after 13 days, 100=total damage, 0=no damage, read-out: Percentage damage caused to weed species ECHCG
Procedure: as §1, with “one day” for “8 days”
as §3

| SMILES | pest or weed control at 1000 g/ha |
| --- | --- |
| COC(=O)c1nc(-c2cccs2)nc(N)c1Cl [Compound 2-1, 4-Amino-5-chloro-6-methoxycarbonyl-2-thiophen-2-ylpyrimidine] | 0% |
| COC(=O)c1nc(-c2ccc(Cl)s2)nc(N)c1Cl [Compound 2-2, 4-Amino-5-chloro-2-(5-chlorothiophen-2-yl)-6-methoxycarbonyl pyrimidine] | 0% |
| COC(=O)c1nc(-c2ccc(C#N)s2)nc(N)c1Cl [Compound 2-3, 4-Amino-5-chloro-2-(5-cyanothiophen-2-yl)-6-methoxycarbonyl pyrimidine] | 0% |
| COC(=O)c1nc(-c2ccc(OC)s2)nc(N)c1Cl [Compound 2-7, 4-Amino-5-chloro-6-methoxycarbonyl-2-(5-methoxythiophen-2-yl)-pyrimidine] | 60% |

test system: Setaria faberi (SETFA); assay: as above; format: in vivo; conditions: 312 h, 1000 g/ha, after 13 days, 100=total damage, 0=no damage, read-out: Percentage damage caused to weed species SETFA
Procedure: as §1, with “one day” for “8 days”
as §3

| SMILES | pest or weed control at 1000 g/ha |
| --- | --- |
| COC(=O)c1nc(-c2cccs2)nc(N)c1Cl [Compound 2-1, 4-Amino-5-chloro-6-methoxycarbonyl-2-thiophen-2-ylpyrimidine] | 0% |
| COC(=O)c1nc(-c2ccc(Cl)s2)nc(N)c1Cl [Compound 2-2, 4-Amino-5-chloro-2-(5-chlorothiophen-2-yl)-6-methoxycarbonyl pyrimidine] | 0% |
| COC(=O)c1nc(-c2ccc(C#N)s2)nc(N)c1Cl [Compound 2-3, 4-Amino-5-chloro-2-(5-cyanothiophen-2-yl)-6-methoxycarbonyl pyrimidine] | 0% |
| COC(=O)c1nc(-c2ccc(OC)s2)nc(N)c1Cl [Compound 2-7, 4-Amino-5-chloro-6-methoxycarbonyl-2-(5-methoxythiophen-2-yl)-pyrimidine] | 20% |

test system: Alopecurus myosuroides (ALOMY); assay: as above; format: in vivo; conditions: 312 h, 1000 g/ha, after 13 days, 100=total damage, 0=no damage, read-out: Percentage damage caused to weed species ALOMY
Procedure: as §1, with “one day” for “8 days”
as §3

| SMILES | pest or weed control at 1000 g/ha |
| --- | --- |
| COC(=O)c1nc(-c2cccs2)nc(N)c1Cl [Compound 2-1, 4-Amino-5-chloro-6-methoxycarbonyl-2-thiophen-2-ylpyrimidine] | 0% |
| COC(=O)c1nc(-c2ccc(Cl)s2)nc(N)c1Cl [Compound 2-2, 4-Amino-5-chloro-2-(5-chlorothiophen-2-yl)-6-methoxycarbonyl pyrimidine] | 0% |
| COC(=O)c1nc(-c2ccc(C#N)s2)nc(N)c1Cl [Compound 2-3, 4-Amino-5-chloro-2-(5-cyanothiophen-2-yl)-6-methoxycarbonyl pyrimidine] | 0% |
| COC(=O)c1nc(-c2ccc(OC)s2)nc(N)c1Cl [Compound 2-7, 4-Amino-5-chloro-6-methoxycarbonyl-2-(5-methoxythiophen-2-yl)-pyrimidine] | 0% |
